Legend:
Assay type in all cases: cell-based
[1] = test system: Staphylococcus warneri T12A12; experiment: First screening, agar dilution MIC
Experimental: (§1) Clinical bacterial isolates from human samples collected in Lille (France) and some collection strains were used. The first screening step on pathogenic bacteria was carried out with crude hydro-alcoholic extracts of different hop parts (Table 1). The second screening was performed using sub-extracts of cones on Gram-positive bacteria, including methicillin-sensitive Staphylococcus aureus (MSSA) and methicillin-resistant Staphylococcus aureus […] (Table 2). These tests were carried out on Petri dishes, Mueller-Hinton Agar (MHA) (Oxoid, UK) was mixed with the plant extract solution in MeOH at 5% (solvent control: 5% MeOH). Final extract concentrations in Petri dishes ranged from 1250 to 4.9 µg/mL. A multi-headed inoculator allowed spotting bacterial strains at 10^5 CFU/mL in cysteinated Ringer (CR) solution (Merck®, France). Minimal Inhibitory Concentrations (MICs) were visually determined after 24 h of incubation at 37 °C.

[2] = test system: Escherichia coli ATCC 25922; experiment: First screening, agar dilution MIC
Experimental: as §1

[3] = test system: Enterobacter cloacae 11053; experiment: First screening, agar dilution MIC
Experimental: as §1

[4] = test system: Enterobacter cloacae 11051; experiment: First screening, agar dilution MIC
Experimental: as §1

Escherichia coli 8138 = experiment: First screening, agar dilution MIC
Experimental: as §1

[5] = test system: Enterobacter cloacae 11050; experiment: First screening, agar dilution MIC
Experimental: as §1

[6] = test system: Staphylococcus epidermidis 10282; experiment: First screening, agar dilution MIC
Experimental: as §1

Proteus mirabilis 11060 = experiment: First screening, agar dilution MIC
Experimental: as §1

[7] = test system: Streptococcus agalactiae T53C2; experiment: First screening, agar dilution MIC
Experimental: as §1

[8] = test system: Acinetobacter baumannii 9010; experiment: First screening, agar dilution MIC
Experimental: as §1

[9] = test system: Citrobacter freundii 11042; experiment: First screening, agar dilution MIC
Experimental: as §1

[10] = test system: Klebsiella pneumoniae 11016; experiment: First screening, agar dilution MIC
Experimental: as §1

[11] = test system: Staphylococcus aureus 8147; experiment: First screening, agar dilution MIC
Experimental: as §1

[12] = test system: Serratia marcescens 11057; experiment: First screening, agar dilution MIC
Experimental: as §1

[13] = test system: Staphylococcus aureus 8146; experiment: First screening, agar dilution MIC
Experimental: as §1

[14] = test system: Pseudomonas aeruginosa ATCC 27583; experiment: First screening, agar dilution MIC
Experimental: as §1

Enterococcus sp. 8153 = experiment: First screening, agar dilution MIC
Experimental: as §1

[15] = test system: Streptococcus dysgalactiae T46C14; experiment: First screening, agar dilution MIC
Experimental: as §1

[16] = test system: Acinetobacter baumannii 9011; experiment: First screening, agar dilution MIC
Experimental: as §1

[17] = test system: Citrobacter freundii 11041; experiment: First screening, agar dilution MIC
Experimental: as §1

[18] = test system: Mycobacterium smegmatis 5003; experiment: First screening, agar dilution MIC
Experimental: as §1

Salmonella sp. 11033 = experiment: First screening, agar dilution MIC
Experimental: as §1

Escherichia coli 8157 = experiment: First screening, agar dilution MIC
Experimental: as §1

[19] = test system: Stenotrophomonas maltophilia; experiment: First screening, agar dilution MIC
Experimental: as §1

[20] = test system: Serratia marcescens 11056; experiment: First screening, agar dilution MIC
Experimental: as §1

[21] = test system: Enterococcus faecalis C159-6; experiment: First screening, agar dilution MIC
Experimental: as §1

[22] = test system: Staphylococcus lugdunensis T26A3; experiment: First screening, agar dilution MIC
Experimental: as §1

[23] = test system: Klebsiella pneumoniae 11017; experiment: First screening, agar dilution MIC
Experimental: as §1

[24] = test system: Staphylococcus epidermidis 5001; experiment: First screening, agar dilution MIC
Experimental: as §1

[25] = test system: Streptococcus agalactiae T25-7; experiment: First screening, agar dilution MIC
Experimental: as §1

[26] = test system: Providencia stuartii 11038; experiment: First screening, agar dilution MIC
Experimental: as §1

Corynebacterium T25-17 [27] = experiment: First screening, agar dilution MIC
Experimental: as §1

[28] = test system: Pseudomonas aeruginosa 8131; experiment: First screening, agar dilution MIC
Experimental: as §1

[29] = test system: Staphylococcus aureus T26A4; experiment: Second screening, agar dilution MIC
Experimental: as §1

[30] = test system: Streptococcus agalactiae 13225; experiment: Second screening, agar dilution MIC
Experimental: as §1

[31] = test system: Streptococcus agalactiae T38.2; experiment: Second screening, agar dilution MIC
Experimental: as §1

[32] = test system: Staphylococcus aureus T36B1; experiment: Second screening, agar dilution MIC
Experimental: as §1

[33] = test system: Streptococcus agalactiae 13226; experiment: Second screening, agar dilution MIC
Experimental: as §1

[34] = test system: Staphylococcus pettenkoferi T3.3; experiment: Second screening, agar dilution MIC
Experimental: as §1

[35] = test system: Staphylococcus aureus T25.10; experiment: Second screening, agar dilution MIC
Experimental: as §1

[36] = test system: Staphylococcus aureus T1.1; experiment: Second screening, agar dilution MIC
Experimental: as §1

[37] = test system: Enterococcus faecalis T39-C11; experiment: Second screening, agar dilution MIC
Experimental: as §1

[38] = test system: Enterococcus faecalis T37A4; experiment: Second screening, agar dilution MIC
Experimental: as §1

[39] = test system: Staphylococcus aureus 8147; experiment: Second screening, agar dilution MIC; details: Table 2
Experimental: as §1

[40] = test system: Staphylococcus aureus T25.3; experiment: Second screening, agar dilution MIC
Experimental: as §1

[41] = test system: Staphylococcus saprophyticus 08237; experiment: Second screening, agar dilution MIC
Experimental: as §1

[42] = test system: Staphylococcus aureus T47A12; experiment: Second screening, agar dilution MIC
Experimental: as §1

[43] = test system: Streptococcus agalactiae T40A2; experiment: Second screening, agar dilution MIC
Experimental: as §1

[44] = test system: Staphylococcus aureus T28.1; experiment: Second screening, agar dilution MIC
Experimental: as §1

[45] = test system: Enterococcus faecalis T26-B7; experiment: Second screening, agar dilution MIC
Experimental: as §1

[46] = test system: Streptococcus agalactiae T25.7; experiment: Second screening, agar dilution MIC
Experimental: as §1

[47] = test system: Staphylococcus aureus CIP 224; experiment: Second screening, agar dilution MIC
Experimental: as §1

[48] = test system: Staphylococcus lugdunensis T26A3; experiment: Second screening, agar dilution MIC; details: Table 2
Experimental: as §1

[49] = test system: Staphylococcus aureus T25.9; experiment: Second screening, agar dilution MIC
Experimental: as §1

[50] = test system: Staphylococcus epidermidis 5001; experiment: Second screening, agar dilution MIC; details: Table 2
Experimental: as §1

[51] = test system: Enterococcus faecalis T34-2; experiment: Second screening, agar dilution MIC
Experimental: as §1

Corynebacterium T25-17 [52] = experiment: Second screening, agar dilution MIC; details: Table 2
Experimental: as §1

[53] = test system: Staphylococcus aureus T6.7; experiment: Second screening, agar dilution MIC
Experimental: as §1

For `CC1(C)S[C@@H]2[C@H](NC(=O)[C@H](N)c3ccc(O)cc3)C(=O)N2[C@H]1C(=O)O` [AMX, Amoxicillin], the “Susceptibility to AMX” value [1] was “S (Amoxicillin (AMX) S ≤ 4)”, the “Susceptibility to AMX” value [2] was “I” and the “Susceptibility to AMX” value [3] was “R (R > 16)”. For the same molecule, the “Susceptibility to AMX” value [4] was “R (R > 16)”, the “Susceptibility to AMX” value (Escherichia coli 8138) was “R (R > 16)” and the “Susceptibility to AMX” value [5] was “R (R > 16)”. The “Susceptibility to AMX” value [6] was “S (Amoxicillin (AMX) S ≤ 4)”, the “Susceptibility to AMX” value (Proteus mirabilis 11060) was “R (R > 16)” and the “Susceptibility to AMX” value [7] was “S (Amoxicillin (AMX) S ≤ 4)”. For the same molecule, the “Susceptibility to AMX” value [8] was “R (R > 16)”, the “Susceptibility to AMX” value [9] was “R (R > 16)” and the “Susceptibility to AMX” value [10] was “R (R > 16)”. For the same molecule, the “Susceptibility to AMX” value [11] was “S (Amoxicillin (AMX) S ≤ 4)”, the “Susceptibility to AMX” value [12] was “R (R > 16)” and the “Susceptibility to AMX” value [13] was “I”. The “Susceptibility to AMX” value [14] was “R (R > 16)”, the “Susceptibility to AMX” value (Enterococcus sp. 8153) was “S (Amoxicillin (AMX) S ≤ 4)” and the “Susceptibility to AMX” value [15] was “S (Amoxicillin (AMX) S ≤ 4)”. For the same molecule, the “Susceptibility to AMX” value [16] was “R (R > 16)”, the “Susceptibility to AMX” value [17] was “S (Amoxicillin (AMX) S ≤ 4)” and the “Susceptibility to AMX” value [18] was “S (Amoxicillin (AMX) S ≤ 4)”. For the same molecule, the “Susceptibility to AMX” value (Salmonella sp. 11033) was “R (R > 16)”, the “Susceptibility to AMX” value (Escherichia coli 8157) was “R (R > 16)” and the “Susceptibility to AMX” value [19] was “R (R > 16)”. For the same molecule, the “Susceptibility to AMX” value [20] was “R (R > 16)”, the “Susceptibility to AMX” value [21] was “R (R > 16)” and the “Susceptibility to AMX” value [22] was “S (Amoxicillin (AMX) S ≤ 4)”. For the same molecule, the “Susceptibility to AMX” value [23] was “R (R > 16)”, the “Susceptibility to AMX” value [24] was “S (Amoxicillin (AMX) S ≤ 4)” and the “Susceptibility to AMX” value [25] was “S (Amoxicillin (AMX) S ≤ 4)”. For the same molecule, the “Susceptibility to AMX” value [26] was “S (Amoxicillin (AMX) S ≤ 4)”, the “Susceptibility to AMX” value (Corynebacterium T25-17 [27]) was “S (Amoxicillin (AMX) S ≤ 4)” and the “Susceptibility to AMX” value [28] was “R (R > 16)”. For the same molecule, the “Susceptibility to AMX” value [29] was “S (Amoxicillin (AMX) S ≤ 4)”, the “Susceptibility to AMX” value [30] was “S (Amoxicillin (AMX) S ≤ 4)” and the “Susceptibility to AMX” value [31] was “S (Amoxicillin (AMX) S ≤ 4)”. The “Susceptibility to AMX” value [32] was “R (R > 16)”, the “Susceptibility to AMX” value [33] was “S (Amoxicillin (AMX) S ≤ 4)” and the “Susceptibility to AMX” value [34] was “S (Amoxicillin (AMX) S ≤ 4)”. The “Susceptibility to AMX” value [35] was “R (R > 16)”, the “Susceptibility to AMX” value [36] was “S (Amoxicillin (AMX) S ≤ 4)” and the “Susceptibility to AMX” value [37] was “S (Amoxicillin (AMX) S ≤ 4)”. The “Susceptibility to AMX” value [38] was “S (Amoxicillin (AMX) S ≤ 4)”, the “Susceptibility to AMX” value [39] was “S (Amoxicillin (AMX) S ≤ 4)” and the “Susceptibility to AMX” value [40] was “R (R > 16)”. The “Susceptibility to AMX” value [41] was “S (Amoxicillin (AMX) S ≤ 4)”, the “Susceptibility to AMX” value [42] was “R (R > 16)” and the “Susceptibility to AMX” value [43] was “S (Amoxicillin (AMX) S ≤ 4)”. The “Susceptibility to AMX” value [44] was “R (R > 16)”, the “Susceptibility to AMX” value [45] was “S (Amoxicillin (AMX) S ≤ 4)” and the “Susceptibility to AMX” value [46] was “S (Amoxicillin (AMX) S ≤ 4)”. For the same molecule, the “Susceptibility to AMX” value [47] was “S (Amoxicillin (AMX) S ≤ 4)”, the “Susceptibility to AMX” value [48] was “S (Amoxicillin (AMX) S ≤ 4)” and the “Susceptibility to AMX” value [49] was “R (R > 16)”. For the same molecule, the “Susceptibility to AMX” value [50] was “S (Amoxicillin (AMX) S ≤ 4)”, the “Susceptibility to AMX” value [51] was “S (Amoxicillin (AMX) S ≤ 4)” and the “Susceptibility to AMX” value (Corynebacterium T25-17 [52]) was “S (Amoxicillin (AMX) S ≤ 4)”. The “Susceptibility to AMX” value [53] was “R (R > 16)”.
